Assay results published in ChEMBL document CHEMBL1124217, “2,4-Diamino-5-benzylpyrimidines and analogues as antibacterial agents. 9. Lipophilic trimethoprim analogues as antigonococcal agents” (J Med Chem, 1988).

What was measured:
Rattus norvegicus [1] = test: Conc in serum of male rat 1 hr after administration of dose; format: functional, organism-based
Rattus norvegicus [2] = test: Conc in stomach of male rat 0.25 hr after administration of dose; format: functional, organism-based
Rattus norvegicus [3] = test: Conc in stomach of male rat 0.75h after administration of dose; format: functional, organism-based
Rattus norvegicus [4] = test: Conc in stomach of male rat 2 hr after administration of dose; format: functional, organism-based
Rattus norvegicus [5] = test: Conc in stomach of male rat 3h after administration of dose; format: functional, organism-based
Proteus vulgaris = test: Inhibition of growth of Proteus vulgaris (CN329) measured as MIC compound/MIC Trimethoprim; format: functional
Rattus norvegicus [6] = test: Conc in muscle of male rat 0.25 hr after administration of dose; format: functional, organism-based; details: Muscle tissue
Rattus norvegicus [7] = test: Conc in muscle of male rat 0.50 hr after administration of dose; format: functional, organism-based; details: Muscle tissue
Rattus norvegicus [8] = test: Conc in muscle of male rat 1.5h after administration of dose; format: functional, organism-based; details: Muscle tissue
Rattus norvegicus [9] = test: Conc in muscle of male rat 4 hr after administration of dose; format: functional, organism-based; details: Muscle tissue
Rattus norvegicus [10] = test: Conc in ovary of female rat 10h after administration of dose; format: functional, organism-based; details: Female gonad
Rattus norvegicus [11] = test: Conc in ovary of female rat 2 hr after administration of dose; format: functional, organism-based; details: Female gonad
Rattus norvegicus [12] = test: Conc in testes of male 1 hr rat after administration of dose; format: functional, organism-based; details: Testis
Rattus norvegicus [13] = test: Conc in testes of male rat 0.25 hr after administration of dose; format: functional, organism-based; details: Testis
Rattus norvegicus [14] = test: Conc in testes of male rat 1.5h after administration of dose; format: functional, organism-based; details: Testis
Rattus norvegicus [15] = test: Conc in testes of male rat 10h after administration of dose; format: functional, organism-based; details: Testis
Rattus norvegicus [16] = test: Conc in intestine of male rat 2 hr after administration of dose; format: functional, organism-based
Rattus norvegicus [17] = test: Conc in intestine of male rat 6 hr after administration of dose; format: functional, organism-based
Rattus norvegicus [18] = test: Conc in liver of male rat 0.50 hr after administration of dose; format: functional, organism-based
Rattus norvegicus [19] = test: Conc in liver of male rat 6 hr after administration of dose; format: functional, organism-based
Rattus norvegicus [20] = test: Conc in serum of female rat 0.25 hr after administration of dose; format: functional, organism-based
Rattus norvegicus [21] = test: Conc in serum of female rat 0.75h after administration of dose; format: functional, organism-based
Rattus norvegicus [22] = test: Conc in serum of female rat 24 hr after administration of dose; format: functional, organism-based
Rattus norvegicus [23] = test: Conc in serum of female rat 6 hr after administration of dose; format: functional, organism-based
Rattus norvegicus [24] = test: Conc in serum of male rat 0.50 hr after administration of dose; format: functional, organism-based
Rattus norvegicus [25] = test: Conc in intestine of male rat 10h after administration of dose; format: functional, organism-based
Rattus norvegicus [26] = test: Conc in lung of male rat 0.75h after administration of dose; format: functional, organism-based
Rattus norvegicus [27] = test: Conc in lung of male rat 2 hr after administration of dose; format: functional, organism-based
Rattus norvegicus [28] = test: Conc in lung of male rat 6 hr after administration of dose; format: functional, organism-based
Rattus norvegicus [29] = test: Conc in lung of male rat after 0.25 hr administration of dose; format: functional, organism-based
Rattus norvegicus [30] = test: Conc in brain of male rat 0.50 hr after administration of dose; format: functional, organism-based
Rattus norvegicus [31] = test: Conc in brain of male rat 1 hr after administration of dose; format: functional, organism-based
Rattus norvegicus [32] = test: Conc in intestine of male rat 1.5h after administration of dose; format: functional, organism-based
Rattus norvegicus [33] = test: Conc in intestine of male rat 24 hr after administration of dose; format: functional, organism-based
Rattus norvegicus [34] = test: Conc in kidney of male rat 4 hr after administration of dose; format: functional, organism-based
Rattus norvegicus [35] = test: Conc in liver of male rat after 0.25 hr administration of dose; format: functional, organism-based
Rattus norvegicus [36] = test: Conc in ovary of female rat 0.75h after administration of dose; format: functional, organism-based; details: Female gonad

CC(C)c1cc(Cc2cnc(N)nc2N)cc(C(C)C)c1O
Concentration (Rattus norvegicus [1]): 0.92 µg/g
Concentration (Rattus norvegicus [2]): 387 µg/g
Concentration (Rattus norvegicus [3]): 319 µg/g
Concentration (Rattus norvegicus [4]): 46.1 µg/g
Concentration (Rattus norvegicus [5]): 8.92 µg/g
MIC ratio (Proteus vulgaris): 300
Concentration (Rattus norvegicus [6]): 0.44 µg/g
Concentration (Rattus norvegicus [7]): 1.45 µg/g
Concentration (Rattus norvegicus [8]): 1.84 µg/g
Concentration (Rattus norvegicus [9]): 0.67 µg/g
Concentration (Rattus norvegicus [10]): 0.23 µg/g
Concentration (Rattus norvegicus [11]): 1.93 µg/g
Concentration (Rattus norvegicus [12]): 1.32 µg/g
Concentration (Rattus norvegicus [13]): 1.34 µg/g
Concentration (Rattus norvegicus [14]): 1.52 µg/g
Concentration (Rattus norvegicus [15]): 0.66 µg/g
Concentration (Rattus norvegicus [16]): 11.6 µg/g
Concentration (Rattus norvegicus [17]): 4.13 µg/g
Concentration (Rattus norvegicus [18]): 29.9 µg/g
Concentration (Rattus norvegicus [19]): 5.14 µg/g
Concentration (Rattus norvegicus [20]): 0.49 µg/g
Concentration (Rattus norvegicus [21]): 1.44 µg/g
Concentration (Rattus norvegicus [22]): 0.14 µg/g
Concentration (Rattus norvegicus [23]): 0.34 µg/g
Concentration (Rattus norvegicus [24]): 1.12 µg/g
Concentration (Rattus norvegicus [25]): 2.29 µg/g
Concentration (Rattus norvegicus [26]): 11.3 µg/g
Concentration (Rattus norvegicus [27]): 4.98 µg/g
Concentration (Rattus norvegicus [28]): 0.52 µg/g
Concentration (Rattus norvegicus [29]): 2.52 µg/g
Concentration (Rattus norvegicus [30]): 0.58 µg/g
Concentration (Rattus norvegicus [31]): 0.91 µg/g
Concentration (Rattus norvegicus [32]): 14.9 µg/g
Concentration (Rattus norvegicus [33]): 0.85 µg/g
Concentration (Rattus norvegicus [34]): 2.07 µg/g
Concentration (Rattus norvegicus [35]): 17.4 µg/g
Concentration (Rattus norvegicus [36]): 4.48 µg/g
